Results on six compounds are retold here after publication PMC7834886 (Life Sciences, 2020).

Molecules are shown by their SMILES.

The subject of data set [1] is ACE2^hi cells (ACE2 high-expressing HEK293T cells). The data set can be described thus: Cytotoxicity assay. The format is cell-based. To be noted: for effect on activity (survival) of ACE2^hi cells: at concentrations below 100 μM; for cytotoxicity to cells: at 20 μM.
For data set [2] the following is noted: preclinical and clinical studies; cited from earlier work.
The next data set addresses ACE2 (Homo sapiens, UniProt Q9BYF1). In kind it is binding. To be noted: mobile phase 10 mM Na2HPO4 / phosphate-buffer saline pH 7.4; flow rate 0.2 mL/min; 37 °C; UV 254 nm.

Sequence of ACE2 (Q9BYF1 18-805): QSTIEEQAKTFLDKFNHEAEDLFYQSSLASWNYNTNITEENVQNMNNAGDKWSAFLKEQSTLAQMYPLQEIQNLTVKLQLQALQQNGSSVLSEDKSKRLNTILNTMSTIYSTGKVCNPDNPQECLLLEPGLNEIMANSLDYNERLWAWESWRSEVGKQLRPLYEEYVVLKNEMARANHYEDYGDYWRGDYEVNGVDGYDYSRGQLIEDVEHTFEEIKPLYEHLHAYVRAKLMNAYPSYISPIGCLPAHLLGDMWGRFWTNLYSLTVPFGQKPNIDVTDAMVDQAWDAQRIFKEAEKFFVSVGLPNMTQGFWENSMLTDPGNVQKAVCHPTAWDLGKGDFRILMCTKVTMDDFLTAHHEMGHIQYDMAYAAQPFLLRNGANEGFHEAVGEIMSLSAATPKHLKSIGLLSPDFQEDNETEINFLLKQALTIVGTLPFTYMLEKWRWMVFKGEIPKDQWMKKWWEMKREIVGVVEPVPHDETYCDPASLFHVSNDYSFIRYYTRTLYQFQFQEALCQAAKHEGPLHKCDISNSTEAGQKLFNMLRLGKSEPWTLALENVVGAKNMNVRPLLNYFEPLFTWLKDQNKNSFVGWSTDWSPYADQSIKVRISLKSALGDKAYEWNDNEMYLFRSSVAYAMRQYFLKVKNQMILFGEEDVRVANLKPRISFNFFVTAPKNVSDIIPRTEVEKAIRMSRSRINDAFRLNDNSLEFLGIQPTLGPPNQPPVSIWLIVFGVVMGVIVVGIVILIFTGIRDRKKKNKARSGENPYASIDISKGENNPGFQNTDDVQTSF

For the compound `O=C1CCc2ccc(OCCCCN3CCN(c4cccc(Cl)c4Cl)CC3)cc2N1` [Ari, aripiprazole], the “effect on activity (survival) of ACE2^hi cells” value in data set [1] (CCK-8, 24 h) is listed as “no significant effect”. The cytotoxicity to cells entry in data set [1] was “no cytotoxicity”.

As for `CN(C)CCCN1c2ccccc2Sc2ccc(Cl)cc21` [Chl, Chlorpromazine], the cytotoxicity to cells entry in data set [1] is on record as “no cytotoxicity”. For the same compound, the “concentration in the lungs relative to plasma” value in data set [2] is given as 20–200 times higher than in plasma.

With `OCCOCCN1CCN(C2=Nc3ccccc3Sc3ccccc32)CC1` [Que, quetiapine], the “difference in cell viability versus control group” value in data set [1] (CCK-8, 24 h, at concentrations below 50 μM) was “no significant difference”. In addition, in data set [1], the cytotoxicity to cells entry is on record as “no cytotoxicity”.

Consider `CSc1ccc2c(c1)N(CCC1CCCCN1C)c1ccccc1S2` (stereo not drawn) [Thi, thioridazine], for which the “retention time (tR) on ACE2-CMC column” value on ACE2 came out at 51.604 min. Also, the cytotoxicity to cells result in data set [1] is recorded as “no cytotoxicity”.

Take `CCN(CC)CCNC(=O)c1cc(S(C)(=O)=O)ccc1OC` [Tia, tiapride]: the “retention time (tR) on ACE2-CMC column” value at ACE2 is given as 7.789 min. The “effect on activity (survival) of ACE2^hi cells” value in data set [1] (CCK-8, 24 h) is recorded as “no significant effect”. In addition, the cytotoxicity to cells entry in data set [1] is “no cytotoxicity”.

For the compound `CN1CCN(CCCN2c3ccccc3Sc3ccc(C(F)(F)F)cc32)CC1` [Tri, Trifluoperazine], the cytotoxicity to cells result in data set [1] is recorded as “no cytotoxicity”.
